Assay results from patent EP3838286B1, “ANTIMICROBIAL PEPTIDE FROM POLISTES GALLICUS VENOM AND ITS ANALOGS” (Latoxan, priority 2019, dated 2021).
Converted amounts (≈) assume the structure as drawn. Read-outs that look alike come from different tables or passages of the source. Square brackets hold non-standard residues; d marks the D form. Ends that are not written are not given here. Peptide text beside a SMILES is read from it.

Experiments:
M. smegmatis = conditions: 72 h
[1] = test system: B. subtilis (Nisin-resistant)
[2] = Cytotoxicity assay (resazurin); type: cell-based; conditions: human
Description: Normal human cells used were BEAS-2B (ATCC CRL-9609), IMR-90 (ATCC CCL-186) and Human Umbilical Vein Endothelial Cells (HUVEC) (from Sigma-Aldrich) corresponding respectively to human normal lung epithelial, normal lung fibroblast cells and human normal endothelial cells. All cells except HUVEC cells were cultured in Dulbecco's modified essential medium (DMEM) supplemented with 10% fetal calf serum (FCS), 1% L-glutamine and 1% antibiotics (all from Invitrogen). HUVEC cells were cultured in specific endothelial media (from Sigma Aldrich). Cells were seeded onto […] maintained in a 5% CO2 incubator at 37 °C. Cells grown on 25 cm^2 flasks were detached using trypsin-EDTA solution (from Thermofisher), counted using Mallassez counting chamber and seeded into 96-well cell culture plates (Greiner bio-one) at approximately 10,000 cells per well. The cells were left to grow for 48-72 h at 37 °C in a 5% CO2 incubator until they reached confluence. Plates were then aspirated and increasing concentrations of peptides diluted in culture media were added to the cells for 48 h at 37 °C in a 5% CO2 incubator. At the end of the incubation, wells were emptied and cell viability was evaluated using Resazurin based in vitro toxicity assay kit (from Sigma-Aldrich) following manufacturer's instructions. Briefly, Resazurin stock solution was diluted 1:10 in sterile PBS containing calcium and magnesium (PBS, pH 7.4) and empty wells were filled with 100 µL of the diluted solution. After 4 h incubation at 37 °C, fluorescence intensity was measured using microplate reader (Synergy Mx, Biotek) with an excitation wavelength of 530 nm and an emission wavelength of 590 nm. The fluorescence values were normalized by the controls (buffer treated cells) and expressed as percent viability. The IC50 values of peptides on cell viability (i.e. the concentration of derivative causing a reduction of 50% of cell viability) were determined using GraphPad® Prism 7 software. t-Test and two way ANOVA analyses were used to address the significant differences between mean values with significance set at p < 0.05.

human erythrocytes = test: Hemolytic activity assay; type: cell-based
Description: The hemolytic activity of each peptide was determined by the leakage of hemoglobin from human erythrocytes (obtained from Divbioscience, NL) as previously described (Oyama et al., 2017 Biofilms Microbiomes, Dec 1;3:33).
Briefly, human erythrocytes were washed 3 times with phosphate buffer saline (PBS) and concentrated using centrifugation at 800 g for 5 min. Human erythrocytes were then resuspended in PBS at a final concentration of 8 %. 100 µl of human erythrocytes were then added per well of sterile 96 well microplate already containing 15 µl of serially diluted antimicrobials (1:2 in distilled water). After 1 h at 37°C, the microplate was centrifuged at 800 g for 5 min. 100 µl were then carefully collected and transferred to a new 96 well microplate and OD was measured at 405 nm. Hemolysis caused by peptides was expressed as percentage of hemolysis; Triton-X100 at 0.1 % (v:v) was used as positive control and gave 100 % hemolysis. Hemolysis rate was determined as below: Hemolysis rate (%) = (A−A2)/(A1−A2) × 100% [formula] where A is the absorbance of indicator mixtures with different factors, A1 and A2 are the positive control, and the negative control, respectively.

[3] = BEAS-2B normal lung epithelial cells, normal lung epithelium, read-out: Cytotoxicity IC50 (µM) BEAS
[4] = HUVEC (human umbilical vein endothelial cells), normal endothelium, read-out: Cytotoxicity IC50 (µM) HUVEC
[5] = IMR-90 normal lung fibroblast cells, read-out: Cytotoxicity IC50 (µM) IMR90

CC[C@@H](C)[C@@H](N)C(=O)N[C@H](CC(C)C)C(=O)N[C@H](CO)C(=O)N[C@H](C)C(=O)N[C@@H](C(=O)N[C@H](CC(C)C)C(=O)NCC(=O)N[C@H](CC(C)C)C(=O)N[C@H](CC(C)C)C(=O)N[C@H](CCCCN)C(=O)N[C@H](CC(N)=O)C(=O)N[C@H](CC(C)C)C(N)=O)[C@H](C)CC [(i1I12)enantio, ilsailgllknl] (H-[dI][dL][dS][dA][dI][dL]G[dL][dL][dK][dN][dL]-NH2)
MIC (µM) E. coli (E. coli): 100 µM (≈ 127 µg/mL) | MIC (µM) S. aureus (S. aureus): 6.25 µM (≈ 7.92 µg/mL) | MIC (µM) B. subtilis (B. subtilis): 3.13 µM (≈ 3.96 µg/mL) | MIC (µM) P. aeruginosa (P. aeruginosa): 100 µM (≈ 127 µg/mL)

CC[C@H](C)[C@H](NC(=O)CN)C(=O)NCC(=O)N[C@@H](C)C(=O)N[C@H](C(=O)N[C@@H](CC(C)C)C(=O)N[C@@H](CCCCN)C(=O)N[C@H](C(=O)N[C@@H](CC(C)C)C(=O)N[C@H](C(=O)N[C@H](C(=O)NCC(=O)N[C@@H](CC(C)C)C(=O)N1CCC[C@H]1C(=O)N[C@@H](C)C(=O)N[C@@H](CC(C)C)C(=O)N[C@H](C(=O)N[C@@H](CO)C(=O)N[C@@H](Cc1c[nH]c2ccccc12)C(=O)N[C@H](C(=O)N[C@@H](CCCCN)C(=O)N[C@@H](CCCNC(=N)N)C(=O)N[C@@H](CCCCN)C(=O)N[C@@H](CCCNC(=N)N)C(=O)N[C@@H](CCC(N)=O)C(=O)N[C@@H](CCC(N)=O)C(N)=O)[C@@H](C)CC)[C@@H](C)CC)[C@@H](C)O)[C@@H](C)O)C(C)C)C(C)C [Melittine, Melittin, reference compound]
MIC against B. subtilis (B. subtilis): 1.56 µM (≈ 4.44 µg/mL)

CC[C@@H](C)[C@@H](N)C(=O)N[C@@H](CC(C)C)C(=O)N[C@@H](CCCCN)C(=O)N[C@@H](C)C(=O)N[C@H](C(=O)N[C@@H](CCCCN)C(=O)N[C@@H](CCCCN)C(=O)N[C@@H](CC(C)C)C(=O)N[C@@H](CC(C)C)C(=O)N[C@H](CCCCN)C(N)=O)[C@@H](C)CC [i1k10*] (H-[dI]LKAIKKLL[dK]-NH2)
MIC (µM) M. smegmatis (M. smegmatis): 12.5 µM (≈ 14.6 µg/mL) | MBC (µM) V. alginolyticus (V. alginolyticus): 0.78 µM (≈ 0.91 µg/mL) | MIC (µM) V. alginolyticus (V. alginolyticus): 0.78 µM (≈ 0.91 µg/mL) | MIC (µM) E. coli (E. coli): 50 µM (≈ 58.3 µg/mL) | MBC (µM) C. rodentium (C. rodentium): 12.5 µM (≈ 14.6 µg/mL) | MIC (µM) C. rodentium (C. rodentium): 12.5 µM (≈ 14.6 µg/mL) | MBC (µM) P. aeruginosa FQR (P. aeruginosa FQR): 25 µM (≈ 29.2 µg/mL) | MIC (µM) P. aeruginosa FQR (P. aeruginosa FQR): 3.12 to 6.25 µM | MBC (µM) P. aeruginosa (P. aeruginosa): 1.5 µM (≈ 1.75 µg/mL) | MIC PA (P. aeruginosa): 0.78 µM (≈ 0.91 µg/mL) | MBC (µM) S. enterica (S. enterica): 12.5 µM (≈ 14.6 µg/mL) | MIC (µM) S. enterica (S. enterica): 12.5 µM (≈ 14.6 µg/mL) | MBC (µM) L. lactis (L. lactis): 1.56 µM (≈ 1.82 µg/mL) | MIC (µM) L. lactis (L. lactis): 0.78 µM (≈ 0.91 µg/mL) | MBC (µM) S. flexneri (S. flexneri): 6.25 µM (≈ 7.29 µg/mL) | MIC (µM) S. flexneri (S. flexneri): 3.12 to 6.25 µM | MBC (µM) P. aeruginosa 01 (P. aeruginosa 01): 12.5 µM (≈ 14.6 µg/mL) | MIC (µM) P. aeruginosa 01 (P. aeruginosa 01): 3.125 µM (≈ 3.65 µg/mL) | MIC (µM) A.baumani (A.baumani): 100 µM (≈ 117 µg/mL) | MBC (µM) A. gandavensis (A. gandavensis): 0.78 µM (≈ 0.91 µg/mL) | MIC (µM) A. gandavensis (A. gandavensis): 0.78 µM (≈ 0.91 µg/mL) | MBC (µM) E. coli EHEC K88 (E. coli EHEC K88): 6.25 µM (≈ 7.29 µg/mL) | MIC (µM) E. coli EHEC K88 (E. coli EHEC K88): 6.25 to 12.5 µM | MBC (µM) B. subtilis (Nisin-resistant) [1]: 3.12 µM (≈ 3.64 µg/mL) | MIC (µM) B. subtilis (Nisin-resistant) [1]: 3.12 µM (≈ 3.64 µg/mL) | MBC (µM) H. pylori (H. pylori): 12.5 µM (≈ 14.6 µg/mL) | MIC (µM) H. pylori (H. pylori): 12.5 µM (≈ 14.6 µg/mL) | MBC (µM) C. farmeri (C. farmeri): 3.12 µM (≈ 3.64 µg/mL) | MIC (µM) C. farmeri (C. farmeri): 3.12 µM (≈ 3.64 µg/mL) | CC50 at 48 h [2, 3]: 867 µM | CC50 at 48 h [2, 4]: 814 µM | CC50 at 48 h [2, 5]: 783 µM

Ac-IKAIKKLLKN-NH2 [Ac I1N10*]
MIC (µM) E. coli (E. coli): 100 µM | MIC (µM) P. aeruginosa (P. aeruginosa): 50 µM | MIC (µM) A.baumani (A.baumani): >100 µM

ILKAIKK-NH2 [I1K7*, ILKAIKK]
MIC (µM) E. coli (E. coli): 100 µM | MIC (µM) S. aureus (S. aureus; Table 4, n=4): / (« / » means MIC > 100µM) | MIC (µM) P. aeruginosa (P. aeruginosa): 100 µM | MIC (µM) A.baumani (A.baumani): 100 µM

ILKAIKKLLK-NH2 [I1K10*]
hemotoxicity: no toxicity towards red blood cells up to (human erythrocytes; highest concentration tested): > 10 mM

ILKAIKKLLKN-NH2 [I1N11]
MIC (µM) M. smegmatis (M. smegmatis): 25 µM | MBC (µM) V. alginolyticus (V. alginolyticus): 0.78 µM | MIC (µM) V. alginolyticus (V. alginolyticus): 0.78 µM | MBC (µM) C. rodentium (C. rodentium): 50 µM | MIC (µM) C. rodentium (C. rodentium): 50 µM | MBC (µM) P. aeruginosa FQR (P. aeruginosa FQR): 100 µM | MIC (µM) P. aeruginosa FQR (P. aeruginosa FQR): 25 µM | MBC (µM) P. aeruginosa (P. aeruginosa): 6.25 µM | MIC (µM) P. aeruginosa (P. aeruginosa): 6.25 µM | MIC PA (P. aeruginosa): 6.25 µM | MBC (µM) S. enterica (S. enterica): 50 µM | MIC (µM) S. enterica (S. enterica): 100 µM | MBC (µM) L. lactis (L. lactis): 3.12 µM | MIC (µM) L. lactis (L. lactis): 1.5 µM | MBC (µM) S. flexneri (S. flexneri): 50 µM | MIC (µM) S. flexneri (S. flexneri): 50 µM | MBC (µM) P. aeruginosa 01 (P. aeruginosa 01): 50 µM | MIC (µM) P. aeruginosa 01 (P. aeruginosa 01): 25 µM | MBC (µM) A. gandavensis (A. gandavensis): 3.12 µM | MIC (µM) A. gandavensis (A. gandavensis): 3.12 µM | MBC (µM) E. coli EHEC K88 (E. coli EHEC K88): >100 µM | MIC (µM) E. coli EHEC K88 (E. coli EHEC K88): 100 µM | MBC (µM) B. subtilis (Nisin-resistant) [1]: 12.5 µM | MIC (µM) B. subtilis (Nisin-resistant) [1]: 12.5 µM | MBC (µM) H. pylori (H. pylori): 100 µM | MIC (µM) H. pylori (H. pylori): 100 µM | MBC (µM) C. farmeri (C. farmeri): 12.5 µM | MIC (µM) C. farmeri (C. farmeri): 12.5 µM | CC50 at 48 h [2, 3]: 821 µM | CC50 at 48 h [2, 4]: 826 µM | CC50 at 48 h [2, 5]: 892 µM

ILSAILGLL-NH2 [Peptides I1L9]
MIC (µM) S. aureus (S. aureus): 100 µM | MIC (µM) B. subtilis (B. subtilis): 100 µM

KLLGLILI-NH2 [K1I8]
MIC (µM) E. coli (E. coli): 50 µM | MIC (µM) S. aureus (S. aureus): 25 µM | MIC (µM) P. aeruginosa (P. aeruginosa; Table 3, n=4): / (« / » means MIC > 100µM)

LKAIKKLL-NH2 [L2L9*]
MIC (µM) E. coli (E. coli): 100 µM | MIC (µM) P. aeruginosa (P. aeruginosa): 25 µM

LNKLLGLIASLI-NH2 [L12I1]
MIC (µM) P. aeruginosa (P. aeruginosa): 50 µM

LSAILGLLK-NH2 [Peptides L2K10]
MIC (µM) B. subtilis (B. subtilis): 100 µM

RLLGLWLW-NH2 [LTX-gallicune-2 (R1W8)]
MHC50 (human erythrocytes; human erythrocytes, 50% lysis): 225 µM | MHC100 (human erythrocytes; human erythrocytes, 100% lysis): 1000 µM | times less toxic (hemotoxic) than Gallicus-CP (human erythrocytes; human erythrocytes, Fig 3): 20 times
